The nature of series [1]: Cytotoxicity in uninfected MT2 cells, XTT colorimetric assay. The format is cell-based. The following applies: human, day 4, XTT, read-out: cytotoxic CC50. As for the experimental part: Compound cytotoxicity and the corresponding CC50 values were determined using the same protocol as described in the antiviral assay except that uninfected cells were used. Cytotoxicity was assessed on day 4 in uninfected MT2 cells by using an XTT (2,3-bis[2-Methoxy-4-nitro-5-sulfophenyl]-2H-tetrazolium-5-carboxanilide inner salt)-based colorimetric assay (Sigma-Aldrich, St Louis, Mo.).
Background: Formazan colour is commonly taken as a measure of viable cells.

Series [2] concerns human hepatocytes. The series can be described thus: Metabolism in human hepatocytes. It is filed as in vitro ADME. The following applies: 0.5 μM. The method, then:
Cryopreserved hepatocytes in suspension from human, monkey, dog, rat and mouse were thawed and diluted in pre-warmed William's Medium E (pH 7.4). Aliquots of the hepatocyte suspension were added to test compound working solutions prepared in pre-warmed William's Medium E (pH 7.4) to achieve final concentrations of 0.5 μM in 0.5×10^6 cells per milliliter and ≤0.25% DMSO. These samples were incubated at 37° C. with 5% carbon dioxide and shaking. The incubations were performed in singlet. At time points 0, 10, 30, 60, 120 and 240 minutes, a 50 μL aliquot of the incubation mixtures was removed and added to a 100 μL solution of acetonitrile containing internal standard and the mixture was then centrifuged at 4° C. and 3500 rpm for 15 minutes. Following completion of the experiment, samples were analyzed by LC-MS/MS. Metabolic stability results were reported as a percentage of parent test compound remaining. This percentage is calculated by dividing the LCMS peak area of test compound following incubation (tx) by the LCMS peak area of test compound at time-zero (t0) just prior to incubation.
The elimination rate constant (k, min^−1) is calculated using nonlinear regression fitting with the following equation: […]
where: C0 is the initial concentration represented as the peak area ratio (test compound peak area/internal standard peak area); Ct is the concentration at t represented as the area ratio (test compound peak area/internal standard peak area); e is the base of the natural logarithm t is the time (min); k is the elimination rate constant (min^−1). The half-life (t1/2, min) is calculated using the following equation: […]
where: k is the elimination rate constant (min^−1). The in vitro intrinsic clearance (CLint, mL/min/million cells) is calculated using the following equation: […]
where: t1/2 is the half-life; n is the number of cells per mL.

The nature of series [3]: Metabolism in monkey liver microsomes. It is filed as in vitro ADME. As for the experimental part:
(§1) Liver microsomes from human, rat dog and monkey were thawed and diluted to a final concentration of 1 mg/mL in 100 mM potassium phosphate buffer (pH 7.4). Test compounds and controls were prepared at 100× final concentration of 1 μM in 1:1 acetonitrile:water (v/v) and aliquoted into microsomal mixture. The mixture was preincubated at 37° C. in a shaking water bath for 10 minutes. The incubations were performed in duplicate. Three controls were included in the incubations; warfarin, phenacetin, and verapamil. After the preincubation, the reaction was initiated with NADPH at a final concentration of 1 mM. At 0, 5, 15, 30, 45 and 60 minutes, 25 μL of sample was removed and quenched with 300 μL of acetonitrile containing internal standard (Telmisartan). The samples were vortexed for 5 minutes at 1200 rpm and then centrifuged at 4000 rpm for 10 min. A 100 μL aliquot of supernatant was diluted three-fold with water and injected on an Exion LC 4500 Triple Quad LC-MS/MS system. Results were reported as a percentage of parent remaining and was calculated from peak area ratios of test compound remaining after at each time point and compared to time zero incubation.
For orientation: Microsomes from liver hold many membrane-bound enzymes, among them those of drug oxidation.

Series [4] in a line: Allometric scaling of pre-clinical PK parameters to predict dose in human. As for the experimental part:
Human dose predictions were performed using Phoenix WinNonlin (v 8.0) software and Microsoft Excel using the ModelRisk add-in for population modeling. Human IV parameters (Vc, Ka, K12, K21, KeI) were determined using Mean Residence Time (MRT) scaling from preclinical species (mouse, rat, dog and cyno). For this calculation, each animal of the relevant PK studies was modeled independently. Absorption (Ka) was determined by deconvolution (PO) or from the half-life (SC) in preclinical species (Ka=LN(2)/t1/2). The predicted human dose for PO and SC is calculated with consideration of human variability and is calculated to cover 95% of the human population.

A short description of series [5]: Metabolism in dog liver microsomes. It is filed as in vitro ADME. As for the experimental part:
as §1

A short description of series [6]: Metabolism in rat liver microsomes. Particulars: pH 7.4, 1 μM compound, 1 mg/mL microsomes, NADPH, 37° C., read-out: Rat liver microsome T1/2. The format is in vitro ADME. The method, then:
as §1

The nature of series [7]: Subcutaneous in vivo PK experiment in rat. Further details: species or system Wistar Han Rats. The following applies: subcutaneous injection 20 mg/kg. As for the experimental part: Drug was formulated in 1% Kolliphor P188/1% PEG3350/3.5% Mannitol/94.5% Water and then administered to Wistar Han Rats as a subcutaneous injection at a dose of 20 mg/kg. Blood samples were collected at 0.167, 0.25, 0.5, 0.75, 1, 2, 3, 5, 7, 24, 48, 72, 96 h, and then every 3 days for up to 122 days. Blood samples were collected into K3EDTA tubes and centrifuged at 1500 to 2000×g to obtain plasma. Plasma samples were stored at −20° C. until analysis by LC-MS/MS.

As to `Cn1nc(NS(C)(=O)=O)c2c(Cl)ccc(-n3c([C@H](Cc4cc(F)cc(F)c4)NC(=O)Cn4nc(C(F)F)c5c4C(F)(F)[C@@H]4C[C@H]54)nc4nc(OCCC(C)(F)F)ccc4c3=O)c21` (atropisomer, axis not shown; (P)) [Example 1, N—((S)-1-((3P)-3-(4-chloro-1-methyl-3-(methylsulfonamido)-1H-indazol-7-yl)-7-(3,3-difluorobutoxy)-4-oxo-3,4-dihydropyrido[2,3-d]pyrimidin-2-yl)-2-(3,5-difluorophenyl)ethyl)-2-((3bS,4aR)-3-(difluoromethyl)-5,5-difluoro-3b,4,4a,5-tetrahydro-1H-cyclopropa[3,4]cyclopenta[1,2-c]pyrazol-1-yl)acetamide], in series [1], the 50% cytotoxic concentration (CC50) (as a rule, the concentration that lowers cell viability or growth by half) at 4 days was greater than 10 µM. In addition, the “intrinsic clearance in human hepatocytes” value in series [2] was “less than 0.2 mL/min/g liver”. Besides, in series [2] (0.5×10^6 cells per milliliter), the “half-life in human hepatocytes” value was “could not be measured”. For the same compound, the “parent remaining after incubation in human hepatocytes” value in series [2] (240 minute incubation) was “no metabolism was measurable”. The “stability in monkey liver microsomes relative to Example 60.2” value in series [3] (Example 1 versus Example 60.2) is “at least two times more stable”. For the same compound, the half-life at 1 μM in series [3] (monkey, liver microsomes, pH 7.4, 1 μM compound, 1 mg/mL microsomes, NADPH, 37° C., read-out: Monkey liver microsome T1/2) is greater than 2 h; in series [5] (dog, liver microsomes, pH 7.4, 1 μM compound, 1 mg/mL microsomes, NADPH, 37° C., read-out: Dog liver microsome T1/2), greater than 2 h; in series [6], greater than 2 h. Besides, in series [4] (Example 1 versus Example 60.2), the “predicted once-daily oral dose in human lower than for Example 60.2” value was 15 fold. Moreover, the “predicted Q1M SC dose in human lower than for Example 60.2” value in series [4] (from SC rat apparent half-lives and predicted human clearance) is 20 fold. Besides, the “predicted human QD PO dose” value in series [4] (once-daily oral dose to maintain efficacious plasma concentration, covers 95% of human population) is “less than 5 mg”. Besides, the “stability in dog liver microsomes relative to Example 60.2” value in series [5] (Example 1 versus Example 60.2) is given as “at least seven times more stable”. For the same compound, the half-life in series [7] (Wistar Han, plasma, sc, read-out: apparent half-life of compound in plasma (converted)) is 1200 h. Moreover, in series [7], the “time drug concentrations were maintained above 5 ng/mL” value was 87 days.

The record behind these values is patent publication US20220105096A1, “INHIBITORS OF HUMAN IMMUNODEFICIENCY VIRUS REPLICATION” (ViiV HEALTHCARE UK (NO.5) LIMITED, priority 2019, published 2022).
